Results reported in ChEMBL document CHEMBL3132769, “Fragment growing to retain or alter the selectivity of anchored kinase hinge-binding fragments” (Medchemcomm, 2014).

What was measured:
[1] = test system: T1, Receptor-type tyrosine-protein kinase FLT3 (Homo sapiens), P36888 [D835Y]; assay: Inhibition of human FLT3 D835Y mutant catalytic domain expressed in baculovirus assessed as substrate phosphorylation using fluorescence-labelled peptides as substrate at 95 uM after 90 mins by microfluidic peptide phosphorylation assay
T1 sequence (whole entry): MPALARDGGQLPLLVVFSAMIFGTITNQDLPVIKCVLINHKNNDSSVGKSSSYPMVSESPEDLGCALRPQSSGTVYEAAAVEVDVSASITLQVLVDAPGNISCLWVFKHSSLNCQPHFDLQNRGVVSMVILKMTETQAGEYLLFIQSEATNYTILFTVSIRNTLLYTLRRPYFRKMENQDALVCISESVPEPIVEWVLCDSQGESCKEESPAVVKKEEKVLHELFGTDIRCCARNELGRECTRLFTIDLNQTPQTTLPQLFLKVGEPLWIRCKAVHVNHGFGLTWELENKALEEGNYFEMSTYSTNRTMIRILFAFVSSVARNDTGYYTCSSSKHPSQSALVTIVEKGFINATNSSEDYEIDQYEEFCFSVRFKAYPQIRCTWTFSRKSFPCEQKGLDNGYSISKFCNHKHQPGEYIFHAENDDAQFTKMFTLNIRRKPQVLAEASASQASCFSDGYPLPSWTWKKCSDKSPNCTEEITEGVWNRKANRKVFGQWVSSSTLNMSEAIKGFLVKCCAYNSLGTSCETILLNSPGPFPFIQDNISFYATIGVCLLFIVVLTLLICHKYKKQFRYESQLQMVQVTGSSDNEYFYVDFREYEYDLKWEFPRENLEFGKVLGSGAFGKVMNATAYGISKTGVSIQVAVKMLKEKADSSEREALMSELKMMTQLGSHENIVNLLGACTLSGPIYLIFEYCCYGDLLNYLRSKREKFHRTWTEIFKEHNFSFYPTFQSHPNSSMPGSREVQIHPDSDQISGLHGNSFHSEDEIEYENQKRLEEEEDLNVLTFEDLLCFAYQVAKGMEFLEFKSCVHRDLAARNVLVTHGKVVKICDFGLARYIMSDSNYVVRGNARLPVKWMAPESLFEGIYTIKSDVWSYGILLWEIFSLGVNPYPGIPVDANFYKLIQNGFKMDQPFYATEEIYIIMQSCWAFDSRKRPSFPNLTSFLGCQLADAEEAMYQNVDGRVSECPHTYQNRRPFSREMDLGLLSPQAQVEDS

[2] = target: T2, Inhibitor of nuclear factor kappa-B kinase subunit beta (Homo sapiens) (UniProt O14920); assay: Inhibition of human full length IKK beta expressed in baculovirus assessed as substrate phosphorylation using fluorescence-labelled peptides as substrate at 8 uM after 90 mins by microfluidic peptide phosphorylation assay
T2 sequence (whole entry): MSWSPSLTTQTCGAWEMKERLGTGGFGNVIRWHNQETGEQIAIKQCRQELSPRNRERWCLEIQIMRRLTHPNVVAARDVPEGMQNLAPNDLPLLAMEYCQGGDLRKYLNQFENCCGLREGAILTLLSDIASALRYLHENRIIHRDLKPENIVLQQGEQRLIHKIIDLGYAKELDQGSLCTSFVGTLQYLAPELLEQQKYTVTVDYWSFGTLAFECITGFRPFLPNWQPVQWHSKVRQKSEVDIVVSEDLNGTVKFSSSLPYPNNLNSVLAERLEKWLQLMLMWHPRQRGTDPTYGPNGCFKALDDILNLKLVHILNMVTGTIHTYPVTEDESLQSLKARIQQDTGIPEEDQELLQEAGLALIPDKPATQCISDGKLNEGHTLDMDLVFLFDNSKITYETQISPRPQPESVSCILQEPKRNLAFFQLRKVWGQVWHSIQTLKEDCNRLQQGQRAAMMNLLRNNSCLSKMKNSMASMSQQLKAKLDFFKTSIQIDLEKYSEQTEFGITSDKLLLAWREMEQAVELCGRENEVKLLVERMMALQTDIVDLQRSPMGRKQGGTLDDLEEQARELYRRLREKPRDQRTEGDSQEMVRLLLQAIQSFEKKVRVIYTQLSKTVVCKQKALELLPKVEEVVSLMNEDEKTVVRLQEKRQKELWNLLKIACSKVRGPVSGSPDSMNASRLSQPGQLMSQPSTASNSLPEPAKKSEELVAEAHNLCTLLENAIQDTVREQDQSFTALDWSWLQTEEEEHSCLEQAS

[3] = target: T3, Protein kinase C epsilon type (Homo sapiens) (UniProt Q02156); assay: Inhibition of human truncated PKC epsilon expressed in baculovirus assessed as substrate phosphorylation using fluorescence-labelled peptides as substrate at 2 uM after 90 mins by microfluidic peptide phosphorylation assay
T3 sequence (whole entry): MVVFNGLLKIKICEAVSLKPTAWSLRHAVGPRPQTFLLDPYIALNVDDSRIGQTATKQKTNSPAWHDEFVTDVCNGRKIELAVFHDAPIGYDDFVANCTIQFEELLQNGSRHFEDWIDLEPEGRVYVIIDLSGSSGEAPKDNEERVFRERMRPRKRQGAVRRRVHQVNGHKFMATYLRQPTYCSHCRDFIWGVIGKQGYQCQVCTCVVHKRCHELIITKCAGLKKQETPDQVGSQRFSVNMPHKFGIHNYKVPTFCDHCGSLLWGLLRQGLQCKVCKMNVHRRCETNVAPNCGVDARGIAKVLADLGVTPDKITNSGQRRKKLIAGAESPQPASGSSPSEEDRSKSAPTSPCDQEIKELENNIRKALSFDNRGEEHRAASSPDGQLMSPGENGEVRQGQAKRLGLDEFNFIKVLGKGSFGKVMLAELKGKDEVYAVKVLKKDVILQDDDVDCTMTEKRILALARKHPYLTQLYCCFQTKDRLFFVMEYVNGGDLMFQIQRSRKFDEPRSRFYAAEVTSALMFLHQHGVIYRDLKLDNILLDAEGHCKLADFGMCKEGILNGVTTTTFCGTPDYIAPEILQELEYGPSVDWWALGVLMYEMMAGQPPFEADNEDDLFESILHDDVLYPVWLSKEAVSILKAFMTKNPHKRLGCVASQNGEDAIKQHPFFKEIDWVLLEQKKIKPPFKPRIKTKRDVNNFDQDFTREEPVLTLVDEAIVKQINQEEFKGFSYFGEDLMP

[4] = target: Insulin receptor (Homo sapiens) (UniProt P06213); conditions: 0.1 uM
Description: Inhibition of human INSR catalytic domain expressed in baculovirus assessed as substrate phosphorylation using fluorescence-labelled peptides as substrate at 0.1 uM after 90 mins by microfluidic peptide phosphorylation assay

[5] = target: MAP kinase-activated protein kinase 3 (Homo sapiens) (UniProt Q16644); assay: Inhibition of human full length MAPKAPK3 expressed in Escherichia coli cell assessed as substrate phosphorylation using fluorescence-labelled peptides as substrate at 9 uM after 90 mins by microfluidic peptide phosphorylation assay
MAP kinase-activated protein kinase 3 (Homo sapiens), sequence (Q16644 whole entry, looked up): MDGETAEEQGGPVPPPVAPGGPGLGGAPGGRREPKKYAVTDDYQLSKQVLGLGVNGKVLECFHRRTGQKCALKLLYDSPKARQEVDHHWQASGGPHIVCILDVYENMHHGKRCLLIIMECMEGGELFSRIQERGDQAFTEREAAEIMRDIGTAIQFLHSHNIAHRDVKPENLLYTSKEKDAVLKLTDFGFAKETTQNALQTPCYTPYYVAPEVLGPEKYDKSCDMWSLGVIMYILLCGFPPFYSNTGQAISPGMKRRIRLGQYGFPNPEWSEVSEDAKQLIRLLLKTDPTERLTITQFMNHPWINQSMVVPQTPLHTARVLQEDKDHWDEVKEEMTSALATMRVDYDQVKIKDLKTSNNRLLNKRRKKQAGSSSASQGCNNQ

NCCc1ccc(-c2ncnc3[nH]cnc23)cc1
inhibition [1]: 86%

NCC1CCN(c2ncnc3[nH]ccc23)CC1
inhibition [2]: 13.5%

NC1CCN(c2ncnc3[nH]ccc23)CC1
inhibition [3]: 2.5%

C[C@H](CN(C)C)Oc1nc(Nc2cc3cccc(Cl)c3cn2)cnc1C#N
inhibition [4]: 0%

NCC1CN(c2ncnc3[nH]c4cnccc4c23)CCO1 (stereo not given)
inhibition [5]: 74%
